In ChEMBL document CHEMBL1201862, “PubChem BioAssay data set” (2004):
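Following 48 hours of exposure in 96-well plates, responses at five concentrations were used to interpolate endpoints linearly. At the GI50, growth is halved.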 The source made the active and inactive calls. Rule as the data show it: active = GI50 up to about 1.1 µM and inactive = higher.

What was measured:
Assay in all cases: NCI-60 cell line screen, 48 h
NCI-H226 = system: NCI-H226
Hs-578T = system: Hs-578T
NCI-H460 = system: NCI-H460
SF-539 = system: SF-539
SK-MEL-28 = system: SK-MEL-28
HOP-62 = system: HOP-62
PC-3 = system: PC-3
Malme-3M = system: Malme-3M
MDA-MB-435 = system: MDA-MB-435
MDA-MB-231 = system: MDA-MB-231
NCI/ADR-RES = system: NCI/ADR-RES
HCT-116 = system: HCT-116
IGROV-1 = system: IGROV-1
A498 = system: A498
CAKI-1 = system: CAKI-1
MDA-N = system: MDA-N
NCI-H23 = system: NCI-H23
HCT-15 = system: HCT-15
NCI-H522 = system: NCI-H522
BT-549 = system: BT-549
MCF7 = system: MCF7
ACHN = system: ACHN
SNB-75 = system: SNB-75
LOX IMVI = system: LOX IMVI
T47D = system: T47D
OVCAR-3 = system: OVCAR-3
DU-145 = system: DU-145
SK-OV-3 = system: SK-OV-3
SN12C = system: SN12C
OVCAR-8 = system: OVCAR-8
OVCAR-5 = system: OVCAR-5
MOLT-4 = system: MOLT-4
HOP-92 = system: HOP-92
SR = system: SR
OVCAR-4 = system: OVCAR-4
KM12 = system: KM12
TK-10 = system: TK-10
UO-31 = system: UO-31
SNB-19 = system: SNB-19
K562 = system: K562
786-0 = system: 786-0
A549 = system: A549
UACC-257 = system: UACC-257
HT-29 = system: HT-29
SF-295 = system: SF-295
HCC 2998 = system: HCC 2998
RPMI-8226 = system: RPMI-8226
U-251 = system: U-251
M14 = system: M14
EKVX = system: EKVX
UACC-62 = system: UACC-62
SK-MEL-5 = system: SK-MEL-5
SF-268 = system: SF-268
COLO 205 = system: COLO 205
HL-60 = system: HL-60
SW-620 = system: SW-620
SK-MEL-2 = system: SK-MEL-2
CCRF-CEM = system: CCRF-CEM
RXF 393 = system: RXF 393

Compound: NCCCNCCS
- GI50 (NCI-H226): > 100 µM (inactive)
- GI50 (Hs-578T): > 100 µM (inactive)
- GI50 (NCI-H460): > 100 µM (inactive)
- GI50 (SF-539): > 100 µM (inactive)
- GI50 (SK-MEL-28): > 100 µM (inactive)
- GI50 (HOP-62): > 100 µM (inactive)
- GI50 (PC-3): > 100 µM (inactive)
- GI50 (Malme-3M): > 100 µM (inactive)
- GI50 (MDA-MB-435): 65.5 µM (inactive)
- GI50 (MDA-MB-231): > 100 µM (inactive)
- GI50 (NCI/ADR-RES): > 100 µM (inactive)
- GI50 (HCT-116): > 100 µM (inactive)
- GI50 (IGROV-1): > 100 µM (inactive)
- GI50 (A498): > 100 µM (inactive)
- GI50 (CAKI-1): 51.8 µM (inactive)
- GI50 (MDA-N): > 100 µM (inactive)
- GI50 (NCI-H23): > 100 µM (inactive)
- GI50 (HCT-15): 74.3 µM
- GI50 (NCI-H522): 91.8 µM (inactive)
- GI50 (BT-549): > 100 µM (inactive)
- GI50 (MCF7): > 100 µM (inactive)
- GI50 (ACHN): > 100 µM (inactive)
- GI50 (SNB-75): > 100 µM (inactive)
- GI50 (LOX IMVI): > 100 µM (inactive)
- GI50 (T47D): > 100 µM (inactive)
- GI50 (OVCAR-3): > 100 µM (inactive)
- GI50 (DU-145): > 100 µM (inactive)

Compound: C=CCOn1c(C=C)nc2ccc(C)cc21
- GI50 (SK-OV-3): 35.2 µM (inactive)
- GI50 (SN12C): 16.3 µM (inactive)
- GI50 (OVCAR-8): 23.6 µM (inactive)
- GI50 (NCI-H226): 20.2 µM (inactive)
- GI50 (Hs-578T): 27.2 µM (inactive)
- GI50 (OVCAR-5): 18.4 µM (inactive)
- GI50 (MOLT-4): 8.18 µM (inactive)
- GI50 (NCI-H460): 13.7 µM (inactive)
- GI50 (HOP-92): 34.9 µM (inactive)
- GI50 (SR): 7.59 µM (inactive)
- GI50 (OVCAR-4): 29.3 µM (inactive)
- GI50 (KM12): 17.3 µM (inactive)
- GI50 (TK-10): 13.6 µM (inactive)
- GI50 (SK-MEL-28): 18.7 µM (inactive)
- GI50 (UO-31): 13.6 µM (inactive)
- GI50 (SNB-19): 17.9 µM (inactive)
- GI50 (HOP-62): 17.9 µM (inactive)
- GI50 (PC-3): 12.9 µM (inactive)
- GI50 (K562): 20.6 µM (inactive)
- GI50 (Malme-3M): 18 µM (inactive)
- GI50 (MDA-MB-435): 13.6 µM (inactive)
- GI50 (786-0): 14 µM (inactive)
- GI50 (A549): 22.7 µM (inactive)
- GI50 (MDA-MB-231): 16.7 µM (inactive)
- GI50 (NCI/ADR-RES): 25.9 µM (inactive)
- GI50 (HCT-116): 12.1 µM (inactive)
- GI50 (UACC-257): 13.7 µM (inactive)
- GI50 (HT-29): 14.1 µM (inactive)
- GI50 (IGROV-1): 26.2 µM (inactive)
- GI50 (A498): 17.1 µM (inactive)
- GI50 (SF-295): 25.6 µM (inactive)
- GI50 (HCC 2998): 18.5 µM (inactive)
- GI50 (RPMI-8226): 2.95 µM (inactive)
- GI50 (CAKI-1): 20.4 µM (inactive)
- GI50 (MDA-N): 17.1 µM (inactive)
- GI50 (NCI-H23): 19.8 µM (inactive)
- GI50 (HCT-15): 17 µM
- GI50 (NCI-H522): 15.5 µM (inactive)
- GI50 (BT-549): 19.7 µM (inactive)
- GI50 (U-251): 12.5 µM (inactive)
- GI50 (MCF7): 10.1 µM (inactive)
- GI50 (ACHN): 20.1 µM (inactive)
- GI50 (M14): 16.5 µM (inactive)
- GI50 (SNB-75): 16 µM (inactive)
- GI50 (LOX IMVI): 12.8 µM (inactive)
- GI50 (EKVX): 19.4 µM (inactive)
- GI50 (T47D): 10.7 µM (inactive)
- GI50 (OVCAR-3): 16 µM (inactive)
- GI50 (UACC-62): 13.6 µM (inactive)
- GI50 (SK-MEL-5): 17.5 µM (inactive)
- GI50 (SF-268): 24 µM (inactive)
- GI50 (COLO 205): 13.6 µM (inactive)
- GI50 (HL-60): 5.01 µM (inactive)
- GI50 (SW-620): 15.4 µM (inactive)
- GI50 (SK-MEL-2): 15.5 µM (inactive)
- GI50 (CCRF-CEM): 2.44 µM (inactive)

Compound: CC(=O)C1(/N=N/c2ccc(S(N)(=O)=O)cc2)CCOC1=O (configuration not stated)
- GI50 (SK-OV-3): > 100 µM (inactive)
- GI50 (SN12C): > 100 µM (inactive)
- GI50 (OVCAR-8): > 100 µM (inactive)
- GI50 (NCI-H226): > 100 µM (inactive)
- GI50 (Hs-578T): > 100 µM (inactive)
- GI50 (OVCAR-5): > 100 µM (inactive)
- GI50 (NCI-H460): > 100 µM (inactive)
- GI50 (HOP-92): > 100 µM (inactive)
- GI50 (SF-539): > 100 µM (inactive)
- GI50 (OVCAR-4): > 100 µM (inactive)
- GI50 (KM12): > 100 µM (inactive)
- GI50 (TK-10): > 100 µM (inactive)
- GI50 (SK-MEL-28): > 100 µM (inactive)
- GI50 (UO-31): > 100 µM (inactive)
- GI50 (SNB-19): > 100 µM (inactive)
- GI50 (HOP-62): > 100 µM (inactive)
- GI50 (PC-3): > 100 µM (inactive)
- GI50 (Malme-3M): > 100 µM (inactive)
- GI50 (MDA-MB-435): > 100 µM (inactive)
- GI50 (786-0): > 100 µM (inactive)
- GI50 (A549): > 100 µM (inactive)
- GI50 (MDA-MB-231): > 100 µM (inactive)
- GI50 (NCI/ADR-RES): > 100 µM (inactive)
- GI50 (HCT-116): > 100 µM (inactive)
- GI50 (UACC-257): > 100 µM (inactive)
- GI50 (HT-29): > 100 µM (inactive)
- GI50 (IGROV-1): > 100 µM (inactive)
- GI50 (A498): > 100 µM (inactive)
- GI50 (SF-295): > 100 µM (inactive)
- GI50 (CAKI-1): > 100 µM (inactive)
- GI50 (RXF 393): > 100 µM (inactive)
- GI50 (MDA-N): > 100 µM (inactive)
- GI50 (NCI-H23): > 100 µM (inactive)
- GI50 (HCT-15): > 100 µM
- GI50 (NCI-H522): > 100 µM (inactive)
- GI50 (BT-549): > 100 µM (inactive)
- GI50 (U-251): > 100 µM (inactive)
- GI50 (MCF7): > 100 µM (inactive)
- GI50 (ACHN): > 100 µM (inactive)
- GI50 (M14): > 100 µM (inactive)
- GI50 (SNB-75): > 100 µM (inactive)
- GI50 (LOX IMVI): > 100 µM (inactive)
- GI50 (EKVX): > 100 µM (inactive)
- GI50 (T47D): > 100 µM (inactive)
- GI50 (OVCAR-3): > 100 µM (inactive)
- GI50 (UACC-62): > 100 µM (inactive)
- GI50 (SK-MEL-5): > 100 µM (inactive)
- GI50 (SF-268): > 100 µM (inactive)
- GI50 (COLO 205): > 100 µM (inactive)
- GI50 (HL-60): 64.6 µM (inactive)
- GI50 (SW-620): > 100 µM (inactive)
- GI50 (DU-145): > 100 µM (inactive)
- GI50 (SK-MEL-2): > 100 µM (inactive)
- GI50 (CCRF-CEM): > 100 µM (inactive)
